Test results reported in patent US6667335B2, “Imidazole derivatives” (Hoffmann-La Roche Inc., priority 2001, dated 2003).

Assays:
NMDA-receptor subtype 2B = target: T1, NMDA-receptor subtype 2B (Rattus norvegicus, UniProt P35439+Q00960); experiment: 3H-Ro 25-6981 binding (displacement) on rat brain membranes; settings: displacement of 5 nM 3H-Ro 25-6981, rat whole brain membranes (minus cerebellum and medulla oblongata), 2 hours at 4° C.
T1 construct: Membranes were prepared by homogenization of the whole brain minus cerebellum and medulla oblongata; from tissue; host or cells: rat whole brain minus cerebellum and medulla oblongata, membrane preparation
Description: ^3H[R-(R*,S*)]-(α-(4-Hydroxy-phenyl)-β-methyl-4-(phenyl-methyl)-1-piperidine propanol)binding
Male Füllinsdorf albino rats weighing between 150-200 g were used. Membranes were prepared by homogenization of the whole brain minus cerebellum and medulla oblongata with a Polytron (10.000 rpm, 30 seconds), in 25 volumes of a cold Tris-HCl 50 mM, EDTA 10 mM, pH 7.1 buffer. The homogenate was centrifuged at 48,000 g for 10 minutes at 4° C. The pellet was resuspended using the Polytron in the same volume of buffer and the homogenate was incubated at 37° C. for 10 minutes. After centrifugation the pellet was homogenized in the same buffer and frozen at −80° C. for at least 16 hours but not more than 10 days. For the binding assay the homogenate was thawed at 37° C., centrifuged and the pellet was washed three times as above in a Tris-HCl 5 mM, pH 7.4 cold buffer. The final pellet was resuspended in the same buffer and used at a final concentration of […]. ^3H-Ro 25-6981 binding experiments were performed using a Tris-HCl 50 mM, pH 7.4 buffer. For displacement experiments 5 nM of ^3H-Ro 25-6981 were used and non specific binding was measured using 10 mM of tetrahydroisoquinoline and usually it accounts for 10% of the total. The incubation time was 2 hours at 4° C. and the assay was stopped by filtration on Whatmann GF/B glass fiber filters (Unifilter-96, Packard, Zürich, Switzerland). The filters were washed 5 times with cold buffer. The radioactivity on the filter was counted on a Packard Top-count microplate scintillation counter after addition of […] of microscint 40 (Canberra Packard S.A., Zuirich, Switzerland).
The effects of compounds were measured using a minimum of 8 concentrations and repeated at least once.

T1 sequence (Q00960 27-1482, other chains not shown): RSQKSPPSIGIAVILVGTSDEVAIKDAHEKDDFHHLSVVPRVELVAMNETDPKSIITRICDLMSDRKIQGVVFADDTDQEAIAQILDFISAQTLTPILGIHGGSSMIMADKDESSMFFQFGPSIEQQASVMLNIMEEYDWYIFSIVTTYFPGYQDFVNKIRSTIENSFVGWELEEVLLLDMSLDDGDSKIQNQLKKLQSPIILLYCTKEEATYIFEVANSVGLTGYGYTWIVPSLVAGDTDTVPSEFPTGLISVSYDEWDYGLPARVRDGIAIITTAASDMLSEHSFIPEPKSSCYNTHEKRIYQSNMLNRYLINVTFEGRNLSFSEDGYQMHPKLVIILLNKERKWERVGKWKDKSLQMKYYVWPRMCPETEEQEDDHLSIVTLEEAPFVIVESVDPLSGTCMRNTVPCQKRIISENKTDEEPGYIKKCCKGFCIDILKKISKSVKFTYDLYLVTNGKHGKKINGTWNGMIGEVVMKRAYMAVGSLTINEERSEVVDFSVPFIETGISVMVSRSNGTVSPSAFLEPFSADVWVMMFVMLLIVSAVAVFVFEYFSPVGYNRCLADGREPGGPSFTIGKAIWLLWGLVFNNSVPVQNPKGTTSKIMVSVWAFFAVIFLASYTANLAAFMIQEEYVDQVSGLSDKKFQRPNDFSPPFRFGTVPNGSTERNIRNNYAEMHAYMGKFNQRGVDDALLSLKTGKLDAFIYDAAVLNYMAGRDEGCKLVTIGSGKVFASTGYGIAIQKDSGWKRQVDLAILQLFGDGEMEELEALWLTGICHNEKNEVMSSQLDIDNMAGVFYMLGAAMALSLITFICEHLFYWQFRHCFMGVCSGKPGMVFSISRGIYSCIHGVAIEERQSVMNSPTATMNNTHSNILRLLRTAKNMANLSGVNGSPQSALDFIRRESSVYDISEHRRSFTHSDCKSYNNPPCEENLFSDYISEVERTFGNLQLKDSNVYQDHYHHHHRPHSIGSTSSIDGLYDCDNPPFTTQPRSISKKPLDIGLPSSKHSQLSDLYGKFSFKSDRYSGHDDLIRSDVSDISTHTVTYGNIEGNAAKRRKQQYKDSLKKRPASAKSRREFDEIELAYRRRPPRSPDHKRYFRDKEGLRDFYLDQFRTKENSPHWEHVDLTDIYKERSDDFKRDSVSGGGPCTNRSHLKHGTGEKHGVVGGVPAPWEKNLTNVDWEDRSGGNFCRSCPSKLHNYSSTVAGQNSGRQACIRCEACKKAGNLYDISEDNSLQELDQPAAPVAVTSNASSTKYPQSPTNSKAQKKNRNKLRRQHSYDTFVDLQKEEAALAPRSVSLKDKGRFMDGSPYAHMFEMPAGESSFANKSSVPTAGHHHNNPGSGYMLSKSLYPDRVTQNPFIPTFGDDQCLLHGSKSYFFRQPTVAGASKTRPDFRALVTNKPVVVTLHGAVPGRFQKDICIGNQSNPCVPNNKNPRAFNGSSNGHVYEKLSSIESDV

Question: Which results are given for `CC(F)(F)c1cc(-n2cnc(Cn3ccnc3)c2)ccc1F.Cl.Cl` [Example 150, 1-[3-(1,1-Difluoro-ethyl)-4-fluoro-phenyl]-4-imidazol-1-ylmethyl-1H-imidazole Hydrochloride (1:2)]?
Answer: IC50 (NMDA-receptor subtype 2B): 0.0135 µM; melting point: > 200 °C (dec.)

Question: What does the source list for `Cc1nccn1Cc1cn(-c2cccc(C(C)C)c2)cn1.Cl.Cl` [Example 152, 1H-Imidazole, 1-[[1-(3-Isopropylphenyl)-1H-imidazol-4-yl]methyl]-2-methyl-, Hydrochloride (1:2)]?
Answer: IC50 (NMDA-receptor subtype 2B): 0.01 µM; melting point: > 200 °C (dec.)

Question: For `CC(C)c1cccc(-n2cnc(Cn3ccnc3)c2)c1.Cl.Cl` [Example 154, 4-Imidazol-1-ylmethyl-1-(3-isopropyl-phenyl)-1H-imidazole Hydrochloride (1:2)], which IC50 (NMDA-receptor subtype 2B) is on record?
Answer: 0.048 µM

Question: And the melting point?
Answer: 200 to 206 °C

Question: For `CCc1nccn1Cc1cn(-c2ccc(F)c(Br)c2)cn1.Cl.Cl` [Example 156, 1H-Imidazole, 1-[[1-(3-Bromo-4-fluorophenyl)-1H-imidazol-4-yl]methyl]-2-ethyl-, Hydrochloride (1:2)], which IC50 (NMDA-receptor subtype 2B) is on record?
Answer: 0.014 µM

Question: What about the melting point of the same molecule?
Answer: 238 to 239 °C

Question: With `Cc1nccn1Cc1cn(-c2ccc(F)c(Br)c2)cn1.Cl.Cl` [Example 157, 1H-Imidazole, 1-[[1-(3-Bromo-4-fluorophenyl)-1H-imidazol-4-yl]methyl]-2-methyl-, Hydrochloride (1:2)] as the molecule, how does the IC50 (NMDA-receptor subtype 2B) read?
Answer: 0.014 µM

Question: And the melting point?
Answer: 232 to 233 °C

Question: With `Cl.Cl.Fc1ccc(-n2cnc(Cn3ccnc3)c2)cc1Br` [Example 158, 1-(3-Bromo-4-fluoro-phenyl)-4-imidazol-1-ylmethyl-1H-imidazole Hydrochloride (1:2)] as the molecule, how does the IC50 (NMDA-receptor subtype 2B) read?
Answer: 0.041 µM

Question: And the melting point?
Answer: 229 to 230 °C

Question: Which results are given for `CCc1cccc(-n2cnc(Cn3ccnc3C)c2)c1.Cl.Cl` [Example 159, 1H-Imidazole, 1-[[1-(3-Ethylphenyl)-1H-imidazol-4-yl]methyl]-2-methyl-, Hydrochloride (1:2)]?
Answer: IC50 (NMDA-receptor subtype 2B): 0.014 µM; melting point: > 200 °C (dec.)

Question: Which IC50 (NMDA-receptor subtype 2B) does the source give for `CCc1cccc(-n2cnc(Cn3ccnc3CC)c2)c1.Cl.Cl` [Example 160, 1H-Imidazole, 2-Ethyl-1-[[1-(3-ethylphenyl)-1H-imidazol-4-yl]methyl]-, Hydrochloride (1:2)] here?
Answer: 0.016 µM

Question: What about the melting point of the same molecule?
Answer: > 200 °C (dec.)

Question: With `CCc1cccc(-n2cnc(Cn3ccnc3)c2)c1.Cl.Cl` [Example 161, 1-(3-Ethyl-phenyl)-4-imidazol-1-ylmethyl-1H-imidazole Hydrochloride (1:2)] as the molecule, how does the IC50 (NMDA-receptor subtype 2B) read?
Answer: 0.05 µM

Question: And the melting point?
Answer: > 190 °C (dec.)

Question: Which IC50 (NMDA-receptor subtype 2B) does the source give for `Cc1nccn1Cc1cn(-c2cccc(C3CC3)c2)cn1.Cl.Cl` [Example 162, 1H-Imidazole, 1-[[1-(3-Cyclopropylphenyl)-1H-imidazol-4-yl]methyl]-2-methyl-, Hydrochloride (1:2)] here?
Answer: 0.016 µM

Question: What about the melting point of the same molecule?
Answer: 174 to 175 °C

Question: Which IC50 (NMDA-receptor subtype 2B) does the source give for `Cc1nccn1Cc1cn(-c2ccc(F)c(C(F)F)c2)cn1.Cl.Cl` [Example 163, 1H-Imidazole, 1-[[1-(3-Difluoromethyl-4-fluorophenyl)-1H-imidazol-4-yl]methyl]-2-methyl-, Hydrochloride (1:2)] here?
Answer: 0.017 µM

Question: What about the melting point of the same molecule?
Answer: 223 to 225 °C (dec.)

Question: Which results are given for `Cl.Cl.Fc1ccc(-n2cnc(Cn3ccnc3)c2)cc1C(F)F` [Example 165, 1-(3-Difluoromethyl-4-fluoro-phenyl)-4-imidazol-1-ylmethyl-1H-imidazole Hydrochloride (1:2)]?
Answer: IC50 (NMDA-receptor subtype 2B): 0.046 µM; melting point: 239 to 241 °C

Question: What does the source list for `CCc1nccn1Cc1cn(-c2cccc(SC)c2)cn1.Cl.Cl` [Example 166, 1H-Imidazole, 2-Ethyl-1-[[1-[3-(methylthio)phenyl]-1H-imidazol-4-yl]methyl]-, Hydrochloride (1:2)]?
Answer: IC50 (NMDA-receptor subtype 2B): 0.02 µM; melting point: > 200 °C (dec.)

Question: Which IC50 (NMDA-receptor subtype 2B) does the source give for `Cc1nccn1Cc1cn(-c2cccc(OC(F)(F)F)c2)cn1.Cl.Cl` [Example 170, 1H-Imidazole, 2-Methyl-1-[[1-[3-(trifluoromethoxy)phenyl]-1H-imidazol-4-yl]methyl]-, Hydrochloride (1:2)] here?
Answer: 0.039 µM

Question: What about the melting point of the same molecule?
Answer: 221 to 223 °C

Question: Which IC50 (NMDA-receptor subtype 2B) does the source give for `C=Cc1cccc(-n2cnc(Cn3ccnc3C)c2)c1.Cl.Cl` [Example 172, 1H-Imidazole, 2-Methyl-1-[[1-(3-vinylphenyl)-1H-imidazol-4-yl]methyl]-, Hydrochloride (1:2)] here?
Answer: 0.024 µM

Question: What about the melting point of the same molecule?
Answer: 207 to 208 °C

Question: Which IC50 (NMDA-receptor subtype 2B) does the source give for `CCc1nccn1Cc1cn(-c2cccc(Cl)c2)cn1.Cl.Cl` [Example 174, 1H-Imidazole, 1-[[1-(3-Chlorophenyl)-1H-imidazol-4-yl]methyl]-2-ethyl-, Hydrochloride (1:2)] here?
Answer: 0.063 µM

Question: What about the melting point of the same molecule?
Answer: > 200 °C (dec.)

Question: Which results are given for `Cc1nccn1Cc1cn(-c2cccc(I)c2)cn1.Cl.Cl` [Example 176, 1H-Imidazole, 1-[[1-(3-Iodophenyl)-1H-imidazol-4-yl]methyl]-2-methyl-, Hydrochloride (1:2)]?
Answer: IC50 (NMDA-receptor subtype 2B): 0.032 µM; melting point: > 222 °C (dec.)

Question: For `CCc1nccn1Cc1cn(-c2cc(F)cc(C(F)(F)F)c2)cn1.Cl.Cl` [Example 177, 1H-Imidazole, 2-Ethyl-1-[[1-[3-fluoro-5(trifluoromethyl)phenyl]-1H-imidazol-4-yl]methyl]-, Hydrochloride (1:2)], which IC50 (NMDA-receptor subtype 2B) is on record?
Answer: 0.0375 µM

Question: What about the melting point of the same molecule?
Answer: 243 to 244 °C

Question: What does the source list for `Cc1nccn1Cc1cn(-c2cc(F)cc(C(F)(F)F)c2)cn1.Cl.Cl` [Example 178, 1H-Imidazole, 1-[[1-[3-Fluoro-5(trifluoromethyl)phenyl]-1H-imidazol-4-yl]methyl]-2-methyl-, Hydrochloride (1:2)]?
Answer: IC50 (NMDA-receptor subtype 2B): 0.074 µM; melting point: > 250 °C

Question: What does the source list for `COc1cc(-n2cnc(Cn3ccnc3C)c2)cc(C(F)(F)F)c1.Cl.Cl` [Example 180, 1H-Imidazole, 1-[[1-[3-Methoxy-5(trifluoromethyl)phenyl]-1H-imidazol-4-yl]methyl]-2-methyl-, Hydrochloride (1:2)]?
Answer: IC50 (NMDA-receptor subtype 2B): 0.05 µM; melting point: 246 to 247 °C

Question: What does the source list for `Cc1nccn1Cc1cn(-c2cccc(C(C)(C)C)c2)cn1.Cl.Cl` [Example 183, 1H-Imidazole, 1-[[1-(3-tert-Butylphenyl)-1H-imidazol-4-yl]methyl]-2-methyl-, Hydrochloride (1:2)]?
Answer: IC50 (NMDA-receptor subtype 2B): 0.052 µM; melting point: > 200 °C (dec.)

Question: Which IC50 (NMDA-receptor subtype 2B) does the source give for `Cc1nccn1Cc1cn(-c2ccc(OC(F)(F)F)c(Cl)c2)cn1.Cl.Cl` [Example 186, 1H-Imidazole, 1-[[1-[3-Chloro-4(trifluoromethoxy)phenyl]-1H-imidazol-4-yl]methyl]-2-methyl-, Hydrochloride (1:2)] here?
Answer: 0.052 µM

Question: And the melting point?
Answer: 221 to 222 °C

Question: Which results are given for `CCc1nccn1Cc1cn(-c2cccc(OC(F)F)c2)cn1.Cl.Cl` [Example 189, 1H-Imidazole, 1-[[1-[3-(Difluoromethoxy)phenyl]-1H-imidazol-4-yl]methyl]-2-ethyl-, Hydrochloride (1:2)]?
Answer: IC50 (NMDA-receptor subtype 2B): 0.053 µM; melting point: 216 to 217 °C

Question: With `Cc1nccn1Cc1cn(-c2cccc(Br)c2)cn1.Cl.Cl` [Example 192, 1H-Imidazole, 1-[[1-(3-Bromophenyl)-1H-imidazol-4-yl]methyl]-2-methyl-, Hydrochloride (1:2)] as the molecule, how does the IC50 (NMDA-receptor subtype 2B) read?
Answer: 0.055 µM

Question: What about the melting point of the same molecule?
Answer: 205 to 207 °C

Question: What does the source list for `Cc1nccn1Cc1cn(-c2cccc(C(F)F)c2)cn1.Cl.Cl` [Example 194, 1H-Imidazole, 1-[[1-[3-(Difluoromethyl)phenyl]-1H-imidazol-4-yl]methyl]-2-methyl-, Hydrochloride (1:2)]?
Answer: IC50 (NMDA-receptor subtype 2B): 0.079 µM; melting point: 195 to 196 °C

Question: Which IC50 (NMDA-receptor subtype 2B) does the source give for `CCc1nccn1Cc1cn(-c2cc(F)cc(Br)c2)cn1.Cl.Cl` [Example 199, 1H-Imidazole, 1-[[1-(3-Bromo-5-fluorophenyl)-1H-imidazol-4-yl]methyl]-2-ethyl-, Hydrochloride (1:2)] here?
Answer: 0.098 µM

Question: And the melting point?
Answer: > 200 °C (dec.)

Question: With `Cl.Cl.Nc1nccn1Cc1cn(-c2ccc3c(c2)OCO3)cn1` [Example 224, 1-(1-Benzo[1,3]dioxol-5-yl-1H-imidazol-4-ylmethyl)-1H-imidazol-2-ylamine Hydrochloride (1:2)] as the molecule, how does the IC50 (NMDA-receptor subtype 2B) read?
Answer: 0.01 µM

Question: What about the melting point of the same molecule?
Answer: > 245 °C (dec.)
